Test results as given in paper PMC3951249 (Bioorganic & medicinal chemistry letters, 2014).

What was measured:
GlyT1 [1] = target: T1, GlyT1 (Homo sapiens, UniProt P48067); conditions: ref 13-15 (1 and 2), ref 5-8 (NFPS); cited from earlier work
T1 sequence (P48067 1-706): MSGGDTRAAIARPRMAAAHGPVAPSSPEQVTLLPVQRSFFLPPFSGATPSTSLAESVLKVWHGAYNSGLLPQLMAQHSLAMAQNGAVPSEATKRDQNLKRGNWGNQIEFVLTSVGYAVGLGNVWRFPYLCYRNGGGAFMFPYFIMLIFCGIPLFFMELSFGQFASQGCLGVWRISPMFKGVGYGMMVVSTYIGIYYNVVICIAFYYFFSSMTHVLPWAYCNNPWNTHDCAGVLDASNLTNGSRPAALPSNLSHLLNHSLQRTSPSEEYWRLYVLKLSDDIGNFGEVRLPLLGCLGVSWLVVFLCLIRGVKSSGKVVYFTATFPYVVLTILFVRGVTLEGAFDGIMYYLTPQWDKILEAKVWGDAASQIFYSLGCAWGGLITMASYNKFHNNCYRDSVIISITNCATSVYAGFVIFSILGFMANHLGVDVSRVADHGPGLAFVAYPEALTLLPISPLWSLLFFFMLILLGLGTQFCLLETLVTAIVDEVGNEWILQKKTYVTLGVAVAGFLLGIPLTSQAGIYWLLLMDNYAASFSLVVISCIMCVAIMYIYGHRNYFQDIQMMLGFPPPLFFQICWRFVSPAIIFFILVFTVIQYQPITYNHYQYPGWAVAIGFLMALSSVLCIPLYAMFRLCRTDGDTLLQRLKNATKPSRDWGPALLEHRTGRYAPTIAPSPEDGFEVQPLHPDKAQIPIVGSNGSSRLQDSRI

[2] = data reported for Merck's 2; cited from earlier work
GlyT1 [3] = target: T1, GlyT1; conditions: 30 mg/kg oral; cited from earlier work
[4] = data reported for Merck's 2; cited from earlier work; remark: listed apart in the source
[5] = tested on: prepulse inhibition (PPI) of the rodent acoustic startle response; assay: prepulse inhibition; type: in vivo; conditions: rat, 30 mg/kg p.o.
GlyT1 [6] = target: T1, GlyT1; assay: GlyT1 inhibition, [14C]-glycine uptake assay; type: cell-based; conditions: for loss in GlyT1 potency relative to piperidine analog: 4a vs 2, 4b vs 1
CYP (isoforms not named) = assay: CYP profile; type: in vitro ADME
[7] = fraction unbound in human plasma; type: in vitro ADME; conditions: fu (hum)
[8] = in vitro intrinsic clearance, human; type: in vitro ADME; conditions: from in vitro intrinsic clearance
[9] = tested on: 68 GPCRs, ion channels and transporters; assay: Eurofin Lead Profiling panel of radioligand binding assays; conditions: @10 μM, 68 targets
[10] = in vitro intrinsic clearance, rat; type: in vitro ADME; conditions: from in vitro intrinsic clearance
stability in rat plasma = type: in vitro ADME; conditions: 4 hours at 37 °C
GlyT2 = target: T2, GlyT2 (Homo sapiens, UniProt Q9Y345); assay: GlyT2 inhibition; type: cell-based
T2 sequence (Q9Y345 1-797): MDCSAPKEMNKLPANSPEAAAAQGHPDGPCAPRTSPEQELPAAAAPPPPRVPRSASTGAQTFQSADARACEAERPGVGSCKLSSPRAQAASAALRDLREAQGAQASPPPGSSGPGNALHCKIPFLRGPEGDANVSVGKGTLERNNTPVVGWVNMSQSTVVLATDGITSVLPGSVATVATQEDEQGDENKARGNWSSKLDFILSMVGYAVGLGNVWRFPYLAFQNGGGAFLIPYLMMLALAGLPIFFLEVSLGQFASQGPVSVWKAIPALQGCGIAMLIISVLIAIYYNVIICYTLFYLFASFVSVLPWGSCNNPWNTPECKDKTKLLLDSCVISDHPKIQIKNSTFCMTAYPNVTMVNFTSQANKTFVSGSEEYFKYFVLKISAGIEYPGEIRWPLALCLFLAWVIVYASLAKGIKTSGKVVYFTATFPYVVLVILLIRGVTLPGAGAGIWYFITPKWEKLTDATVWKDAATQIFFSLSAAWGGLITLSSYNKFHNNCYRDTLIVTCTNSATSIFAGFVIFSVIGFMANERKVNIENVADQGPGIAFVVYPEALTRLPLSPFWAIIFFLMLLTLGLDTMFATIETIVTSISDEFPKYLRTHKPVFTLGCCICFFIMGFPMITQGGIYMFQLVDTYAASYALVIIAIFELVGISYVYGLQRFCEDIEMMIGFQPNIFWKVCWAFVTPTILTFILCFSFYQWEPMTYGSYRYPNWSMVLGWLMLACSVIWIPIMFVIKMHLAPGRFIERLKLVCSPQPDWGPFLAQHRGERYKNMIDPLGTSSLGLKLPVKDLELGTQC

[11] = brain tissue distribution study; type: in vivo; conditions: rat
CYP3A4 = CYP3A4 (Homo sapiens, UniProt P08684); assay: CYP inhibition; type: in vitro ADME
CYP3A4, sequence (P08684 whole entry): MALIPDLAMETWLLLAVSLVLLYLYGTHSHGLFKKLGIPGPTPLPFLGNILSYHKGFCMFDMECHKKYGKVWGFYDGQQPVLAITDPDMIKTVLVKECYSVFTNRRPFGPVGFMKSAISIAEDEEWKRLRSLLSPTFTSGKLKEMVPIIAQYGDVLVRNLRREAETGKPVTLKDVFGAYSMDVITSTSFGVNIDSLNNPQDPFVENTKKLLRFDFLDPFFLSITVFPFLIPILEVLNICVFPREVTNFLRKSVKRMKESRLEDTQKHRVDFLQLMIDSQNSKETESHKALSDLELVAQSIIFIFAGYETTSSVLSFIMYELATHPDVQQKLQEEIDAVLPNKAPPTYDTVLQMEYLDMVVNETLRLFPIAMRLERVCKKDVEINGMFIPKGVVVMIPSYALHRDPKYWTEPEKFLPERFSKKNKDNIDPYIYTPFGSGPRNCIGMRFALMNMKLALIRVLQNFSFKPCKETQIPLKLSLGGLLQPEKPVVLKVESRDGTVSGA

## CCCS(=O)(=O)N1CCC(c2ccccc2)([C@H](C)NC(=O)c2ccc(Cl)cc2Cl)CC1 [Compound 1]
GlyT1 [1]
  known mechanism of action with respect to glycine: competitive

## CCS(=O)(=O)N1CCC(CNC(=O)c2ccc(Cl)cc2Cl)(CC2CC2)CC1 [Compound 2]
GlyT1 [1]
  known mechanism of action with respect to glycine: competitive
[2]
  clearance in rat: moderate to high clearance
GlyT1 [3]
  occupancy: > 90%
[4]
  clearance in dog: low clearance
[5]
  effect on basal startle amplitude during no-stimulus trials: no effect

## CCS(=O)(=O)N1C[C@@H]2[C@H](C1)[C@@]2(CNC(=O)c1ccc(Cl)cc1Cl)CC1CC1 [Compound 4a]
GlyT1 [6]
  loss in GlyT1 potency relative to piperidine analog: 50 fold

## CCCS(=O)(=O)N1C[C@@H]2[C@H](C1)[C@@]2(CNC(=O)c1ccc(Cl)cc1Cl)CC1CC1 [Compound 4b]
GlyT1 [6]
  loss in GlyT1 potency relative to piperidine analog: ~ 150 fold

## Cn1cnc(S(=O)(=O)N2C[C@@H]3[C@H](C2)[C@@]3(CNC(=O)c2ccc(Cl)cc2Cl)c2ccccn2)c1 [Compound 10]
CYP (isoforms not named)
  IC50: > 30 µM

## Cn1cnc(S(=O)(=O)N2C[C@@H]3[C@H](C2)[C@@]3(CNC(=O)c2ccccc2C(F)(F)F)c2ccccn2)c1 [Compound 11]
CYP (isoforms not named)
  IC50: > 30 µM

## Cn1cnc(S(=O)(=O)N2C[C@@H]3[C@H](C2)[C@@]3(CNC(=O)c2c(Cl)cccc2Cl)CC2CC2)c1 [Compound 12c]
GlyT1 [6]; [14C]-glycine transport, 40 nM 12c
  mechanism of inhibition with respect to glycine (Eadie-Hoffstee plot): competitive

## Cn1cnc(S(=O)(=O)N2C[C@@H]3[C@H](C2)[C@@]3(CNC(=O)c2ccccc2C(F)(F)F)CC2CC2)c1 [Compound 12d]
[7]
  fraction unbound: 0.068
[8]
  predicted hepatic clearance ClHEP: 17.7 mL/min/kg
[9]
  inhibition against any target in the panel: ≤ 50%
[10]
  predicted hepatic clearance ClHEP: 43.0 mL/min/kg
[5]
  effect on basal startle amplitude during no-stimulus trials: no effect
Stability in rat plasma
  stability in rat plasma: stable
GlyT2
  IC50: > 30 µM
[11]; 10 mg/kg p.o. in 0.5% methocellulose
  brain AUC0-6hr: 0.956 µM·h
[11]; 10 mg/kg s.c. in 10% tween 80
  brain AUC0-6hr: 0.431 µM·h
CYP3A4
  IC50: 14.9 µM
